# Results from patent US11737462B2, “Methods for modulating plant response to environmentally-induced stress” (Howard University, priority 2012, dated 2023).
# Legend:
# [1] = system: homodimerized RACK1A maintaining yeast cells (AA); test: UV-B induced cell death in homodimerized RACK1A maintaining yeast cells (AA); type: cell-based; settings: 60 μM overnight, Live/dead staining, vs DMSO-only control
# Procedure: (§1) In this experiment, yeast cells were irradiated with UV-B light to analyze the effect of SD-29 analogs on UV-B induced cell death. The yeast cells were developed to assay for RACK1A homodimerization assays using split-ubiquitin technique. In this assay, homodimerized RACK1A maintaining yeast cells (AA) were grown overnight in the presence of 60 μM of the indicated compounds. Yeast cells treated overnight with SD-29-7, SD-29-9, and SD-29-11 with and without exposure to UV-B were compared to a DMSO-only control. The cells were stained with Invitrogen's Live/dead cell assay system where dead cells appeared as intensely fluorescent with brightness under a fluorescent microscope.
# (§2) In this experiment, yeast was treated with UV-B to analyze the effect of SD-29-12 on UV-B induced cell death. Two groups of yeast were used. One was the yeast used in Example 6 (“AA”) and the other (“YY”) is a Y248F mutant. The AA cells can homodimerize but YY cells cannot.
# (§3) The yeast was treated overnight with SD-29-12 and then followed the same protocol as described in Example 6.
# RACK1A = RACK1A (Arabidopsis thaliana, UniProt O24456); test: in-vitro assay of tyrosine phosphorylation (Y248) based homodimerization of RACK1A; type: biochemical; settings: in-vitro assay
# Description: A crystal structure of Arabidopsis thaliana RACK1 protein has been reported. Deducing the crystal structure of the Arabidopsis RACK1A protein highlighted the potential functional residues of the protein. Noteworthy in the structure was the functionally conserved tyrosine phosphorylation residue (Y248) that has been implicated in RACK1A function. Therefore, it was undertaken to identify a chemical inhibitor of Y248 phosphorylation that would serve as a potential “anti-stress” compound in countering environmental stresses in plants. In order to identify small compounds occupying the Y248 pocket, docking simulations with a subset of 30,000 compounds were performed. Based on ranking with an energy cut-off of 25 kcal/mol, 3,011 compounds were then selected. Upon further re-ranking, 46 lead compounds were identified and 11 compounds were screened for their efficacy in an in-vitro assay. […] Those six compounds include SD-29, SD-29-9, SD-29-11, SD-29-22, SD-34, and SD-125.
# Arabidopsis RACK1A = target: T1, Arabidopsis RACK1A (Arabidopsis thaliana, UniProt O24456); test: western blot of RACK1A tyrosine phosphorylation in Arabidopsis leaves under heat stress; type: in vivo; settings: 42° C. for three hours, western blot, antibody to phosphorylated Y248
# T1 construct: from tissue; host or cells: Arabidopsis plant leaves
# Procedure: In the examples described herein, the test compounds (e.g., SD-29 or analogs thereof) were dissolved in dimethyl sulfoxide (DMSO) to provide a 20 mM concentration. Micromolar concentrations were then prepared as needed by addition to the water incubation media. Unless stated otherwise, the experimental plants were incubated with the roots immersed in the water containing the compound. The control plants received only DMSO in the same amount as that of the compound. In the second group (FIG. 3), Arabidopsis plants were held at 42° C. for six hours and compared to control plants held at about 22° C. The Arabidopsis plant in the experimental group was treated with 60 μM SD-29 in water. A control plant received water and DMSO. Lysates were then prepared from the leaves and western blots were performed using immobilized mouse anti-pTRY and Arabidopsis-anti RAC[…]. […] A similar experiment was carried out using analog SD-29-9 and SD-29 at 42° C. for three hours. […] A western blot was then performed using an antibody that was raised targeting phosphorylated […] residue of RAC[…].
# Y248F mutant yeast (YY) = test: UV-B induced cell death in Y248F mutant yeast (YY); type: cell-based; settings: treated overnight, Live/dead staining
# Procedure: as §1, §2, §3
# Arabidopsis plants = test: high temperature stress (42° C.) in Arabidopsis plants; type: in vivo, Arabidopsis thaliana
# plant = test: salt sensitivity when applied to a plant; settings: in vivo
# Chain of RACK1A (O24456 whole entry): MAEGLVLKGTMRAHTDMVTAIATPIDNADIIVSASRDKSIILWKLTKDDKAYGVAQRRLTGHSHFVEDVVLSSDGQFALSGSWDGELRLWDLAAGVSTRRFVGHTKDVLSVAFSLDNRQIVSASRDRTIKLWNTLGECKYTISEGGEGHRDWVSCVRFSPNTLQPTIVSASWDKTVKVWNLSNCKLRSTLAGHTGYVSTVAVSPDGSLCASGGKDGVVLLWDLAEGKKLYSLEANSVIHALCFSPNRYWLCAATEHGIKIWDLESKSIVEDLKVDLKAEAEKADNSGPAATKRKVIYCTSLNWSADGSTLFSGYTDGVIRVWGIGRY
# T1 sequence (O24456 whole entry): as above
SMILES,UV-B induced cell death in yeast cells (AA) [1],tyrosine phosphorylation (Y248) based homodimerization of RACK1A proteins (RACK1A),also measured
Nn1c(SCc2ccc(F)cc2)nnc1-c1ccc(Cl)cc1 [SD-29-7],did not protect the cells,,
Cc1cc(Cl)ccc1NC(=O)CSc1nnc(-c2cccc(Cl)c2)n1N [SD-29-9],effective to protect yeast cells from UV-B induced cell death,prevent tyrosine phosphorylation (Y248) based homodimerization of RACK1A proteins,Arabidopsis RACK1A tyrosine phosphorylation at increased temperature (Arabidopsis RACK1A): effective to prevent Arabidopsis RACK1A tyrosine phosphorylation at increased temperature
COc1cc(-c2nnc(SCC(=O)Nc3ccc(Oc4ccccc4)cc3)n2N)cc(OC)c1OC [SD-29-11],effective to protect yeast cells from UV-B induced cell death,prevent tyrosine phosphorylation (Y248) based homodimerization of RACK1A proteins,
COc1ccc(-c2nnc(SCC(=O)O)n2N)cc1 [SD-29-12],effective to prevent UV-B induced cell death,,"UV-B induced cell death in Y248F mutant yeast (YY) (Y248F mutant yeast (YY)): failed to provide protection from UV-B induced cell death; high temperature stress induced deformations in Arabidopsis plants (Arabidopsis plants; 42° C., vs vehicle control (DMSO)): very effective in preventing high temperature stress induced deformations; heat sensitivity when applied to a plant (Arabidopsis plants; in vivo): does not induce heat sensitivity; salt sensitivity when applied to a plant (plant): induces salt sensitivity"
Cc1ccc2[nH]cc(C(O)C(F)(F)F)c2c1 (stereo not shown) [SD-34],,prevent tyrosine phosphorylation (Y248) based homodimerization of RACK1A proteins,
COc1ccc2[nH]cc(CC(N)C(=O)O)c2c1 (stereo not shown) [SD-125],,prevent tyrosine phosphorylation (Y248) based homodimerization of RACK1A proteins,
